Experimental data from patent US20020081572A1, “Three dimensional structure of paramyxovirus hemagglutinin neuraminidases and use thereof” (priority 2000, published 2002).

Tests used:
[1] = target: Sendai Virus Hemagglutinin-Neuraminidase (Sendai virus, UniProt P03425); experiment: Paramyxovirus hemagglutinin-neuraminidase fluorimetric assay; type: biochemical
Influenza Neuraminidase = experiment: Influenza neuraminidase fluorimetric assay; type: biochemical, influenza virus; details: 4-methylumbelliferyl-alpha-D-acetylneuraminic acid substrate 75 uM, pH 6.5, 37 C

Sendai Virus Hemagglutinin-Neuraminidase, sequence (P03425 whole entry): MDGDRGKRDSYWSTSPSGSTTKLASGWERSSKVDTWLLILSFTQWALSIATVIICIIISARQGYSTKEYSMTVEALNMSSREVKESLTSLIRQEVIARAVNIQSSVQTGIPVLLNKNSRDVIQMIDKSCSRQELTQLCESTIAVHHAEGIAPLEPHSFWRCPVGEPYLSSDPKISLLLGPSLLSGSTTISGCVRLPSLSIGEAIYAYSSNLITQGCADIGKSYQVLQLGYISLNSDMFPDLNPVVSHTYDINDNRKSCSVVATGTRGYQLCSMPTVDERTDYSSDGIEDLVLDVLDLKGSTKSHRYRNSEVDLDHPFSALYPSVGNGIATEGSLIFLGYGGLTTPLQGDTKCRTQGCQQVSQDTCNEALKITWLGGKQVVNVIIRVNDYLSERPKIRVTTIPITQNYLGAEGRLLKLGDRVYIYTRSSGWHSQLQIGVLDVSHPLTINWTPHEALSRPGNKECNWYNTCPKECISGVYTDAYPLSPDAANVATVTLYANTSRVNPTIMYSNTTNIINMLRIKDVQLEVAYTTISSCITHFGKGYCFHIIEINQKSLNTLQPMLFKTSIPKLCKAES

Molecule `CCC(CC)C(NC(C)=O)C1CC(C(=O)O)CC1NC(=N)N` (single isomer, unassigned; (-)) [Compound 3, (-)t-3-[(1-Acetylamino-2-ethyl)butyl]-c-4-(aminoiminomethyl)aminocyclopentan-r-1-carboxylic acid] has an IC50 [1] greater than 300 µM and an IC50 (Influenza Neuraminidase) of less than 0.05 µM.
`CCC(CC)C(NC(C)=O)C1C(NC(=N)N)CC(C(=O)O)C1O` (single isomer, unassigned; (-)) [Compound 2, (-)-t-e-[(1-Acetylamino)(2-ethyl)butyl]-c-4-(aminoiminomethyl)amino-t-2-hydroxycyclopentan-r-1-carboxylic acid] gave an IC50 [1] greater than 300 µM and an IC50 (Influenza Neuraminidase) of less than 0.05 µM.
Molecule `CCN(CC)C(=O)C(NC(C)=O)C1CC(C(=O)O)CC1NC(=N)N` (stereo not drawn) [Compound 1, alpha-3-[(Acetylamino)(diethylaminocarbonyl)methyl]-beta-4-[(aminoiminomethyl)amino]cyclopentane-1-carboxylic acid] has an IC50 [1] greater than 300 µM and an IC50 (Influenza Neuraminidase) of less than 0.05 µM.
